Test results as given in patent US9334263B2, “Compositions useful for treating disorders related to kit” (BLUEPRINT MEDICINES CORPORATION, priority 2013, dated 2016).

Columns and labels:
[1] = target: T1, Kit D816V (HMC1.2 cells, Kit V560G and D816V) (Homo sapiens, UniProt P10721, D816V/V560G); assay: HMC1.2 autophosphorylation assay (AlphaLISA, phospho-Y719 c-Kit); type: cell-based; details: Kit autophosphorylation at tyrosine 719, 90 minutes, read-out: Cellular Activity
T1 construct: endogenous in cells; host or cells: HMC1.2 cells
T1 sequence (P10721 26-976 V560G/D816V): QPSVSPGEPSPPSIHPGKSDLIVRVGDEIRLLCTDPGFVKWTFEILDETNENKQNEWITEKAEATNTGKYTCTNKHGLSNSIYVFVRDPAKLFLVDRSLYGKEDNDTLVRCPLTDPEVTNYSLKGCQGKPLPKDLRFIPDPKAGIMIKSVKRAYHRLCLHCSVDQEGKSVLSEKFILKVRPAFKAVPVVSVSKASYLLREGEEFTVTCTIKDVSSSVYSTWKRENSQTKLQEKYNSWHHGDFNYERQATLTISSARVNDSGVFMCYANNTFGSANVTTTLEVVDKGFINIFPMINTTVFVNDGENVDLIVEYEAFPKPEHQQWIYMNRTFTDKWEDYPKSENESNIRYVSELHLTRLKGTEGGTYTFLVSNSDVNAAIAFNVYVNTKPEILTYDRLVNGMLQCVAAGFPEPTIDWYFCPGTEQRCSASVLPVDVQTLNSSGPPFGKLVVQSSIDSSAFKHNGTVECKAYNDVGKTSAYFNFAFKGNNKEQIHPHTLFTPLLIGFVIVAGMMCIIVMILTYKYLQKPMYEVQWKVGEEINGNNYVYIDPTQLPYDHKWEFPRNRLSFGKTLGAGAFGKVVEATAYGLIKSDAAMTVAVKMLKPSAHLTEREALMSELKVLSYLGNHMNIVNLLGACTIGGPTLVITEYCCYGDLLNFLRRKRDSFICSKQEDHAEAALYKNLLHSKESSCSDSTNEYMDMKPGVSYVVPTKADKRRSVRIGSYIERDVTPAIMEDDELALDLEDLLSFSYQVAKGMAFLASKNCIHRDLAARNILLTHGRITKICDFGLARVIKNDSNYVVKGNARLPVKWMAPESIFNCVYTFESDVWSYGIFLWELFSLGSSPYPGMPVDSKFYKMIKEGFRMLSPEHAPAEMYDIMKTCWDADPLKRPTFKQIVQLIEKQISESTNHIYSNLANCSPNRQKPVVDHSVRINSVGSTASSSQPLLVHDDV
Description: HMC1.2 Autophosphorylation Assay:
10,000 HMC1.2 cells were incubated in 22 ul culture media (phenol-red free IMDM, no serum) in each well of a 384-well plate and serum starved overnight in a tissue culture incubator (5% CO2, 37° C.). A 10-point dose concentration series of compound (25 uM-95.4 pM) were then added to the cells in a volume of 3.1 ul to each well (0.25% DMSO final concentration). After 90 minutes, 6 ul of 5× AlphaLISA Lysis Buffer (Perkin Elmer) supplemented with a protease and phosphatase inhibitor cocktail (Cell Signaling Technologies) was added to each well and shaken at 450 rpm for 15 minutes at 4° C. 10 ul of phospho-Y719 c-Kit and total c-Kit antibodies (15 nM final concentration, Cell Signaling Technologies) and 50 ug/ml AlphaLISA rabbit acceptor beads (Perkin Elmer) were added to each well and shaken at 300 rpm at room temperature for 2 hours. 10 ul of 100 ug/ml streptavidin donor beads (Perkin Elmer) were added to each well, blocked from light with aluminum adhesive and shaken at 300 rpm at room temperature for 2 hours. Fluorescence signal was obtained on Envision (Perkin Elmer) by AlphaScreen 384 well HTS protocol.
This cell line contains Kit mutated at positions V560G and D816V resulting in constitutive activation of the kinase. The following compounds were tested in an assay to measure direct inhibition of Kit D816V kinase activity by assaying Kit autophosphorylation at tyrosine 719 on the Kit protein.

D816V Kit = target: T2, D816V Kit (Homo sapiens, UniProt P10721, D816V); assay: Kit D816V assay at Km (Caliper electrophoretic mobility shift); type: biochemical; details: 15 uM ATP, 25 C, 90 minutes
T2 construct: purchased Carna Bioscience 08-156
T2 sequence (P10721 26-976 D816V): as the sequence (P10721 26-976 V560G/D816V) above, with G535V counted along it
Description: In order to assess the activity of chemical compounds against the relevant kinase of interest, the Caliper LifeSciences electrophoretic mobility shift technology platform is used. Fluorescently labeled substrate peptide is incubated in the presence of kinase and ATP so that a […] proportion of the peptide is phosphorylated. At the end of the reaction, the mix of phosphorylated (product) and non-phosphorylated (substrate) peptides are passed through the microfluidic system of the Caliper EZ Reader 2, under an applied potential difference. The presence of the phosphate group on the product peptide provides a difference in mass and charge between those of the substrate peptide, resulting in a separation of the substrate and product pools in the sample. As the pools pass a LEDS within the instrument, these pools are detected and resolved as separate peaks. The ratio between these peaks therefore reflects the activity of the chemical matter at that concentration in that well, under those conditions.
The reaction was stopped by the addition of 70 ul of Stop buffer (100 mM HEPES pH 7.5, 0.015% Brij 35, 35 mM EDTA and 0.2% of Coating Reagent 3 (Caliper Lifesciences)). The plate was then read on a Caliper EZReader 2 (protocol settings: −1.9 psi, upstream voltage −700, downstream voltage −3000, post sample sip 35 s).

Row | IC50 [1] [nM] | IC50 (D816V Kit) [nM] | Structure (SMILES)
1 | 10 to 100 | 1.01 to 10 | Cc1c(Nc2ncnc(N3CCN(c4ncc(Cc5ccccc5)cn4)CC3)n2)cnn1C[C@@H]1CNCCO1 [Compound 185]
2 | 10 to 100 | < 1 | c1ccc(Cc2cnc(N3CCN(c4ncnc(Nc5ccc6c(c5)CCCNC6)n4)CC3)nc2)cc1 [Compound 72]
3 | 10 to 100 | < 1 | C[C@@H](O)CNc1ccc(Nc2ncnc(N3CCN(c4ncc(Cc5ccccc5)cn4)CC3)n2)cc1 [Compound 82]
4 | 10 to 100 | < 1 | OCc1nc(N2CCN(c3ncnc(Nc4ccc5c(c4)CNCC5)n3)CC2)ncc1Cc1ccccc1 [Compound 110]
5 | < 10 | < 1 | CC(C)(O)c1ccc(Nc2ncnc(N3CCN(c4ncc([C@@](C)(N)c5ccc(F)cc5)cn4)CC3)n2)cc1 [Compound 193]
6 | 10 to 100 | 1.01 to 10 | C[C@H](O)Cn1cc(Nc2ncnc(N3CCN(c4ncc(Cc5ccccc5)cn4)CC3)n2)cn1 [Compound 33]
7 | 10 to 100 | < 1 | O[C@@H](c1ccccc1)c1cnc(N2CCN(c3ncnc(Nc4cnn(CC5CNCCO5)c4)n3)CC2)nc1 (stereo partly drawn) [Compound 189, (S)-(2-(4-(4-(1-(morpholin-2-ylmethyl)-1H-pyrazol-4-ylamino)-1,3,5-triazin-2-yl)piperazin-1-yl)pyrimidin-5-yl)(phenyl)methanol]
8 | 10 to 100 | 1.01 to 10 | c1ccc(C2(c3cnc(N4CCN(c5ncnc(Nc6cnn(C[C@@H]7CNCCO7)c6)n5)CC4)nc3)CC2)cc1 [Compound 233]
9 | 10 to 100 | 1.01 to 10 | Fc1ccccc1Oc1cnc(N2CCN(c3ncnc(Nc4cnn(C[C@@H]5CNCCO5)c4)n3)CC2)nc1 [Compound 203, (S)-4-(4-(5-(2-fluorophenoxyl)pyrimidin-2-yl)piperazin-1-yl)-N-(1-(morpholin-2-ylmethyl)-1H-pyrazol-4-yl)-1,3,5-triazin-2-amine]
10 | 10 to 100 | < 1 | OC[C@H](O)Cn1cc(Nc2ncnc(N3CCN(c4ncc(Cc5ccccc5)cn4)CC3)n2)cn1 [Compound 66]
11 | 10 to 100 | 1.01 to 10 | OC1(c2ccc(Nc3ncnc(N4CCN(c5ncc(Cc6ccccc6)cn5)CC4)n3)cc2)CCCCC1 [Compound 155]
12 | 10 to 100 | < 1 | OCC(O)c1ccc(Nc2ncnc(N3CCN(c4ncc(Cc5ccccc5)cn4)CC3)n2)cc1 (centres unmarked) [Compound 55]
13 | 10 to 100 | < 1 | CC(C)(O)Cn1cc(Nc2ncnc(N3CCN(c4ncc([C@](C)(O)c5ccc(F)cc5)cn4)CC3)n2)cn1 [Compound 207]
14 | 10 to 100 | < 1 | c1ccc(Cc2cnc(N3CCN(c4ncnc(Nc5cnn(C[C@H]6COCCN6)c5)n4)CC3)nc2)cc1 [Compound 125]
15 | 100 to 1000 | 1.01 to 10 | Cc1cc(N2CCNCC2)ccc1Nc1ncnc(N2CCN(c3ncc(Cc4ccccc4)c(N)n3)CC2)n1 [Compound 228]
16 | < 10 | < 1 | OCc1ccccc1Cc1cnc(N2CCN(c3ncnc(Nc4ccc5c(c4)CNCC5)n3)CC2)nc1 [Compound 109]
17 | 10 to 100 | 1.01 to 10 | CC1(Cn2cc(Nc3ncnc(N4CCN(c5ncc(Cc6ccccc6)cn5)CC4)n3)cn2)COC1 [Compound 87]
18 | 1000 to 10000 | 1.01 to 10 | Brc1cnc(N2CCN(c3ncnc(Nc4cnn(C[C@@H]5CNCCO5)c4)n3)CC2)nc1 [Compound 91]
19 | 100 to 1000 | 1.01 to 10 | Fc1cccc(F)c1Cc1cnc(N2CCN(c3ncnc(Nc4ccc5c(c4)CNCC5)n3)CC2)nc1 [Compound 136]
20 | 10 to 100 | < 1 | CC(C)(c1ccccc1)c1cnc(N2CCN(c3ncnc(Nc4ccc([C@@H](O)CO)cc4)n3)CC2)nc1 [Compound 120]
21 | 10 to 100 | < 1 | CC(C)(O)CN1CCc2ccc(Nc3ncnc(N4CCN(c5ncc(Cc6ccccc6)cn5)CC4)n3)cc2C1 [Compound 262]
22 | 10 to 100 | < 1 | C[C@](N)(c1ccc(F)cc1)c1cnc(N2CCN(c3ncnc(Nc4ccccc4)n3)CC2)nc1 [Compound 29]
23 | 10 to 100 | < 1 | C[C@@H](O)CN1CCc2ccc(Nc3ncnc(N4CCN(c5ncc(Cc6ccccc6)cn5)CC4)n3)cc2C1 [Compound 220]

Row | IC50 [1] [nM] | IC50 (D816V Kit) [nM] | Structure (SMILES)
24 | 10 to 100 | < 1 | OC[C@@H](O)c1ccc(Nc2ncnc(N3CCN(c4ncc(Cc5ccc(F)cc5)cn4)CC3)n2)cc1 [Compound 92]
25 | > 10000 | 10 to 100 | c1nc(Nc2cnn(CC3CNCCO3)c2)nc(N2CCN(c3ncc(C4CC4)cn3)CC2)n1 (centres unmarked) [Compound 19]
26 | 10 to 100 | 1.01 to 10 | c1ccc(Cc2cnc(N3CCN(c4ncnc(Nc5ccc(O[C@H]6CCCNC6)nc5)n4)CC3)nc2)cc1 [Compound 171]
27 | 10 to 100 | 1.01 to 10 | Fc1ccc(OCc2cnc(N3CCN(c4ncnc(Nc5cnn(C[C@@H]6CNCCO6)c5)n4)CC3)nc2)cc1 [Compound 253]
28 | 10 to 100 | < 1 | Cc1c(Nc2ncnc(N3CCN(c4ncc(Cc5ccccc5)cn4)[C@H](C)C3)n2)cnn1C[C@@H]1CNCCO1 [Compound 242]
29 | < 10 | < 1 | CC(C)(c1ccccc1)c1cnc(N2CCN(c3ncnc(Nc4ccc([C@H](O)CO)cc4)n3)CC2)nc1 [Compound 119]
30 | 10 to 100 | < 1 | OC[C@@H](O)Cn1cc(Nc2ncnc(N3CCN(c4ncc(Cc5ccccc5)cn4)CC3)n2)cn1 [Compound 65]
31 | 10 to 100 | 1.01 to 10 | OC[C@H](O)COc1ccc(Nc2ncnc(N3CCN(c4ncc(Cc5ccccc5)cn4)CC3)n2)cc1 [Compound 131]
32 | 10 to 100 | < 1 | Cc1c(Nc2ncnc(N3CCN(c4ncc(Sc5ccccc5F)cn4)CC3)n2)cnn1CC(C)(C)O [Compound 210]
33 | 10 to 100 | 1.01 to 10 | Cc1c(Nc2ncnc(N3CCN(c4ncc(Sc5ccc(F)cc5)cn4)CC3)n2)cnn1C[C@H](C)O [Compound 151]
34 | 10 to 100 | 1.01 to 10 | COc1cccc(Cc2cnc(N3CCN(c4ncnc(Nc5cnn(C[C@@H]6CNCCO6)c5)n4)CC3)nc2)c1 [Compound 249]
35 | 100 to 1000 | 1.01 to 10 | OCCNc1ccc(Nc2ncnc(N3CCN(c4ncc(Cc5ccccc5)cn4)CC3)n2)cn1 [Compound 58]
36 | 10 to 100 | < 1 | Cc1c(Nc2ncnc(N3CCN(c4ncc(Cc5ccccc5)c(N)n4)CC3)n2)cnn1C[C@@H]1CNCCO1 [Compound 245]
37 | < 10 | < 1 | CC(C)(O)Cn1cc(Nc2ncnc(N3CCN(c4ncc([C@@](C)(O)c5ccc(F)cc5)cn4)CC3)n2)cn1 [Compound 208]
38 | 10 to 100 | 1.01 to 10 | OC[C@@H](O)COc1cccc(Nc2ncnc(N3CCN(c4ncc(Cc5ccccc5)cn4)CC3)n2)c1 [Compound 130]
39 | 1000 to 10000 | 1.01 to 10 | COc1cc(N2CCNCC2)ccc1Nc1ncnc(N2CCN(c3ncc(Cc4ccccc4)cn3)CC2)n1 [Compound 230]
40 | 10 to 100 | < 1 | Cc1nn(C[C@H](C)O)cc1Nc1ncnc(N2CCN(c3ncc(Sc4ccccc4F)cn3)CC2)n1 [Compound 153]
41 | 10 to 100 | < 1 | c1ccc(Cc2cnc(N3CCN(c4ncnc(Nc5ccc6c(c5)CNCC65CC5)n4)CC3)nc2)cc1 [Compound 97]
42 | 100 to 1000 | 1.01 to 10 | Cc1c(Nc2ncnc(N3CCN(c4ncc(Sc5ccccc5F)cn4)[C@H](C)C3)n2)cnn1C[C@H](O)CO [Compound 264]
43 | 10 to 100 | < 1 | CC(C)(O)Cn1cc(Nc2ncnc(N3CCN(c4ncc(Cc5ccccc5)cn4)CC3)n2)cn1 [Compound 62]
44 | < 10 | < 1 | C[C@](N)(c1ccc(F)cc1)c1cnc(N2CCN(c3ncnc(Nc4ccc([C@@H](O)CO)cc4)n3)CC2)nc1 [Compound 195]
45 | 10 to 100 | 1.01 to 10 | Cc1nn(C[C@@H]2CNCCO2)cc1Nc1ncnc(N2CCN(c3ncc(Cc4ccccc4)cn3)CC2)n1 [Compound 184]
46 | 10 to 100 | 1.01 to 10 | C[C@@H](O)Cn1cc(Nc2ncnc(N3CCN(c4ncc(Cc5ccccc5)cn4)CC3)n2)cn1 [Compound 32]
